The text below walks through data of BindingDB's records for PubMed 8996189 (Pfizer, 1997).

Structures are written as SMILES.

In assay [1] the target is T1, Adenosine receptor A1 (Oryctolagus cuniculus, UniProt P34970).
T1 sequence (P34970 whole entry): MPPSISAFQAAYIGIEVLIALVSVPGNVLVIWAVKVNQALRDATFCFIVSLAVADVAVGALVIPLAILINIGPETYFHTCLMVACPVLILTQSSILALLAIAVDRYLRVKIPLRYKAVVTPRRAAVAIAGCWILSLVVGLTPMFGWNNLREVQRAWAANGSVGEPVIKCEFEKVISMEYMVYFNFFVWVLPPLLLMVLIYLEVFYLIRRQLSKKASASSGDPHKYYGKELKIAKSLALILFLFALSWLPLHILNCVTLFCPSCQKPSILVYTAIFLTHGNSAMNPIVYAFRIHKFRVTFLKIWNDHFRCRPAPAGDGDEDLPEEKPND

Assay [2] concerns the target T2, Adenosine receptor A3 (Oryctolagus cuniculus, UniProt O02667).
T2 sequence (O02667 whole entry): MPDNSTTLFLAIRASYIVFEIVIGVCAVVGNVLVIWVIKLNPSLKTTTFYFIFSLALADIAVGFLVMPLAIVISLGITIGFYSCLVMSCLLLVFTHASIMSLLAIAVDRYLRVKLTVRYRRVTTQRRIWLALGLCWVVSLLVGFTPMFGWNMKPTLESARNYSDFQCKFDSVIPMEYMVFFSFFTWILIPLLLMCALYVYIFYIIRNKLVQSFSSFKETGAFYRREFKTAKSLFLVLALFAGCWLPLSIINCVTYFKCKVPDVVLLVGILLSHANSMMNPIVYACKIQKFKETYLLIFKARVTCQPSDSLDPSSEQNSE

In assay [3] the target is T3, Adenosine receptor A1 (Homo sapiens, UniProt P30542).
T3 sequence (P30542 whole entry): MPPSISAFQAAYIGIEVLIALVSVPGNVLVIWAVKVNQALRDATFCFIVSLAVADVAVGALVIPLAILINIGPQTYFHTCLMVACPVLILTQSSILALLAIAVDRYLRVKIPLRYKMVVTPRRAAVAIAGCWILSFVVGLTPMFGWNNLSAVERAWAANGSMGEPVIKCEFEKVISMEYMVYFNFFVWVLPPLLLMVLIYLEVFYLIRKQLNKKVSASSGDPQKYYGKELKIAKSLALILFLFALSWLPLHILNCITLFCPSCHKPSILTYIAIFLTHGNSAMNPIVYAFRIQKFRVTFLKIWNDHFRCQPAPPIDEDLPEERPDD

In assay [4] the target is T4, Adenosine receptor A3 (Homo sapiens, UniProt P0DMS8).
T4 sequence (P0DMS8 whole entry): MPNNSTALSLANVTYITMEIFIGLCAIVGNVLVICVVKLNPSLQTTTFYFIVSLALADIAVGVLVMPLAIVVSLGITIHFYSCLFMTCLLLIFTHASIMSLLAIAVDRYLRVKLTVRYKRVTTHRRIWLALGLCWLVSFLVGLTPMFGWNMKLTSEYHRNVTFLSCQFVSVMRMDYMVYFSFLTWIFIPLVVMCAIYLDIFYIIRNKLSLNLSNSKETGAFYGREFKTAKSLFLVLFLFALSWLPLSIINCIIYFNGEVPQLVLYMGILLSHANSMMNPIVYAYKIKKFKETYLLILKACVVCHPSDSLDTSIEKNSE

The target of assay [5] is T5, Adenosine receptor A3 (Ovis aries, UniProt P35342).
T5 sequence (P35342 whole entry): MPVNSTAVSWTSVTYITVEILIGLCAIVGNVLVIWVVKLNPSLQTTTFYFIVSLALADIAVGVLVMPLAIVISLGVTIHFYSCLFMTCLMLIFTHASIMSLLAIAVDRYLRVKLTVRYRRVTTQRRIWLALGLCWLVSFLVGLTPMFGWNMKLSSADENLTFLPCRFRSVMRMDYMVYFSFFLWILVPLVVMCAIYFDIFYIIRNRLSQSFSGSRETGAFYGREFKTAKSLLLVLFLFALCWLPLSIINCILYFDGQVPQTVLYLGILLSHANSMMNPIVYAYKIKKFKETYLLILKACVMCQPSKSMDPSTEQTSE

Usually Ki stands for the dissociation constant of the complex between target and ligand, obtained from inhibition or displacement. A higher Ki goes with weaker binding. `Nc1ccc(CCNc2ncnc3c2ncn3C2OC(CO)C(O)C2O)cc1` (stereo not drawn) [ChEMBL_198532]: the values for the Ki at Adenosine receptor A1 [1] and on Adenosine receptor A3 [2] were 6 nM and 47 nM, respectively.

Take `Nc1ccc(CNc2ncnc3c2ncn3[C@@H]2O[C@H](CO)[C@@H](O)[C@H]2O)cc1I` [IABA]: the inhibition constant (Ki) on Adenosine receptor A1 [1] amounted to 4 nM; on Adenosine receptor A3 [2] it was 5 nM. For `CCCn1c(=O)c2[nH]c(C3CCCC3)nc2n(CCC)c1=O` [DPCPX], the affinity on Adenosine receptor A3 [2] corresponds to a Ki of 1120 nM. The same measure, in the same setting: in the case of `CC(Cc1ccccc1)Nc1ncnc2c1ncn2C1OC(CO)C(O)C1O` (stereo not drawn) [R-N6-(2-phenylisopropyl) adenosine] it was 49 nM. For `CCCn1c(=O)c2[nH]c(-c3ccc(OCC(=O)NCCN)cc3)nc2n(CCC)c1=O` [N-(2-Amino-ethyl)-2-[4-(2,6-dioxo-1,3-dipropyl-2,3,6,9-tetrahydro-1H-purin-8-yl)-phenoxy]-acetamide], the inhibitory constant (Ki) amounted to 5 nM on Adenosine receptor A1 [1] and 329 nM on Adenosine receptor A3 [2]. Regarding `CCCn1c(=O)c2[nH]c(-c3ccc(C=CC(=O)O)cc3)nc2n(CCC)c1=O` [NSC_129447], the Ki on Adenosine receptor A1 [3] is 120 nM; at Adenosine receptor A3 [4], 40 nM; at Adenosine receptor A1 [1], 3 nM; on Adenosine receptor A3 [2], 746 nM; on Adenosine receptor A3 [5], 21 nM. `CCNC(=O)[C@H]1O[C@@H](n2cnc3c(N)ncnc32)[C@H](O)[C@@H]1O`: the figures for the Ki on Adenosine receptor A1 [1] and on Adenosine receptor A3 [2] were 2 nM and 27 nM, respectively. Regarding `CNC(=O)C1OC(n2cnc3c(NCc4cccc(I)c4)ncnc32)C(O)C1O` (stereo not drawn) [3,4-dihydroxy-5-(6-{[(3-iodophenyl)methyl]amino}-9H-purin-9-yl)-N-methyloxolane-2-carboxamide], on Adenosine receptor A1 [1], the Ki was determined as 30 nM. This counts as double-digit nanomolar. `OC[C@H]1O[C@@H](n2cnc3c(NC4CCCC4)ncnc32)[C@H](O)[C@@H]1O` came in with a Ki at Adenosine receptor A3 [2] of 49 nM. On Adenosine receptor A3 [2], `Cn1c(=O)c2[nH]c(-c3ccc(S(=O)(=O)O)cc3)nc2n(C)c1=O` [4-(1,3-Dimethyl-2,6-dioxo-2,3,6,7-tetrahydro-1H-purin-8-yl)-benzenesulfonic acid] yielded a Ki of more than 10000 nM.
